In PubChem BioAssay AID1918953 (Molecular Pharmacology Branch, DTP, NCI, 2023):

Test system: MDA-MB-231 complex spheroid viability
Assay: Anticancer human tumor MDA-MB-231/ATCC cell line growth inhibition;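 further: drug exposure lasted 7 days starting on day 3 of spheroid growth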
Conditions: for IC50: curve of first compound; for viability, T/C: stronger effect = lower value
Outline: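 Multicellular complex spheroids of tumor cells with human endothelial cells (HUVEC) and mesenchymal stem cells; the LSD1 inhibitor iadademstat was combined with standard-of-care or investigational agents. Top concentration at or near clinical Cmax, half-log dilutions; final DMSO ≤0.25%.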

[1] = second compound 0.1 µM, first compound 0.0316 µM
[2] = second compound 0.1 µM, first compound 0.1 µM
[3] = second compound 0.1 µM, first compound 0.316 µM
[4] = second compound 0.1 µM, first compound 1 µM
[5] = second compound 0.316 µM, first compound 0.0316 µM
[6] = second compound 0.316 µM, first compound 0.1 µM
[7] = second compound 0.316 µM, first compound 0.316 µM
[8] = second compound 0.316 µM, first compound 1 µM
[9] = second compound 1 µM, first compound 0.0316 µM
[10] = second compound 1 µM, first compound 0.1 µM
[11] = second compound 1 µM, first compound 0.316 µM
[12] = second compound 1 µM, first compound 1 µM
[13] = second compound 3.16 µM, first compound 0.0316 µM
[14] = second compound 3.16 µM, first compound 0.1 µM
[15] = second compound 3.16 µM, first compound 0.316 µM
[16] = second compound 3.16 µM, first compound 1 µM
[17] = second compound 10 µM, first compound 0.0316 µM
[18] = second compound 10 µM, first compound 0.1 µM
[19] = second compound 10 µM, first compound 0.316 µM
[20] = second compound 10 µM, first compound 1 µM

With `COc1ccc([C@@H](O)c2cc(-c3ncnc4cc(N5CCOCC5)ccc34)c(F)cc2Cl)nn1` + NC1CCC(NC2CC2c2ccccc2)CC1 the IC50 (second compound 0.1 µM) was 483 nM, the IC50 (second compound 0.316 µM) was 555 nM and the IC50 (second compound 1 µM) was 669 nM. For the same compound, the IC50 (second compound 3.16 µM) was 505 nM, the IC50 (second compound 10 µM) was 280 nM and the viability, T/C [1] was 89.3%. The viability, T/C [2] was 75.7%, the viability, T/C [3] was 55.6% and the viability, T/C [4] was 40.3%. For the same compound, the viability, T/C (second compound 0.1 µM, first compound 3.16 µM) was 27.9%, the viability, T/C (second compound 0.1 µM, first compound 10 µM) was 24.6% and the viability, T/C [5] was 91.5%. For the same compound, the viability, T/C [6] was 79.3%, the viability, T/C [7] was 59.1% and the viability, T/C [8] was 41.2%. It also gave a viability, T/C (second compound 0.316 µM, first compound 3.16 µM) of 27.6%, a viability, T/C (second compound 0.316 µM, first compound 10 µM) of 26% and a viability, T/C [9] of 96.6%. It also gave a viability, T/C [10] of 79.8%, a viability, T/C [11] of 65.7% and a viability, T/C [12] of 41.9%. It also gave a viability, T/C (second compound 1 µM, first compound 3.16 µM) of 28.9%, a viability, T/C (second compound 1 µM, first compound 10 µM) of 23.8% and a viability, T/C [13] of 74.2%. It also gave a viability, T/C [14] of 72.1%, a viability, T/C [15] of 54.2% and a viability, T/C [16] of 42.3%. It also gave a viability, T/C (second compound 3.16 µM, first compound 3.16 µM) of 27.2%, a viability, T/C (second compound 3.16 µM, first compound 10 µM) of 24.4% and a viability, T/C [17] of 62.8%. The viability, T/C [18] was 61%, the viability, T/C [19] was 47.5% and the viability, T/C [20] was 36.5%. The viability, T/C (second compound 10 µM, first compound 3.16 µM) was 28% and the viability, T/C (second compound 10 µM, first compound 10 µM) was 24.3%.

Compound `Nc1ncn(C2CC(O)C(CO)S2)c(=O)n1` (stereo not given) + NC1CCC(NC2CC2c2ccccc2)CC1 has an IC50 (second compound 0.1 µM) of 19.9 nM, an IC50 (second compound 0.316 µM) of 21.2 nM and an IC50 (second compound 1 µM) of 14.7 nM. The IC50 (second compound 3.16 µM) was 8.38 nM, the IC50 (second compound 10 µM) was 3.2 nM and the viability, T/C (second compound 0.1 µM, first compound 0.000949 µM) was 94.4%. The viability, T/C (second compound 0.1 µM, first compound 0.003 µM) was 78.2%, the viability, T/C (second compound 0.1 µM, first compound 0.00949 µM) was 63% and the viability, T/C (second compound 0.1 µM, first compound 0.03 µM) was 44.3%. The viability, T/C (second compound 0.1 µM, first compound 0.0949 µM) was 24.2%, the viability, T/C (second compound 0.1 µM, first compound 0.3 µM) was 12.3% and the viability, T/C (second compound 0.316 µM, first compound 0.000949 µM) was 93.2%. The viability, T/C (second compound 0.316 µM, first compound 0.003 µM) was 77.5%, the viability, T/C (second compound 0.316 µM, first compound 0.00949 µM) was 65.1% and the viability, T/C (second compound 0.316 µM, first compound 0.03 µM) was 46.4%. For the same compound, the viability, T/C (second compound 0.316 µM, first compound 0.0949 µM) was 21.9%, the viability, T/C (second compound 0.316 µM, first compound 0.3 µM) was 12% and the viability, T/C (second compound 1 µM, first compound 0.000949 µM) was 95.2%. For the same compound, the viability, T/C (second compound 1 µM, first compound 0.003 µM) was 77.8%, the viability, T/C (second compound 1 µM, first compound 0.00949 µM) was 58.5% and the viability, T/C (second compound 1 µM, first compound 0.03 µM) was 37.7%. It also gave a viability, T/C (second compound 1 µM, first compound 0.0949 µM) of 19.5%, a viability, T/C (second compound 1 µM, first compound 0.3 µM) of 11.2% and a viability, T/C (second compound 3.16 µM, first compound 0.000949 µM) of 77.2%. For the same compound, the viability, T/C (second compound 3.16 µM, first compound 0.003 µM) was 62.6%, the viability, T/C (second compound 3.16 µM, first compound 0.00949 µM) was 49.9% and the viability, T/C (second compound 3.16 µM, first compound 0.03 µM) was 32%. It also gave a viability, T/C (second compound 3.16 µM, first compound 0.0949 µM) of 17.9%, a viability, T/C (second compound 3.16 µM, first compound 0.3 µM) of 12% and a viability, T/C (second compound 10 µM, first compound 0.000949 µM) of 61.2%. The viability, T/C (second compound 10 µM, first compound 0.003 µM) was 50.1%, the viability, T/C (second compound 10 µM, first compound 0.00949 µM) was 37.6% and the viability, T/C (second compound 10 µM, first compound 0.03 µM) was 23.8%. For the same compound, the viability, T/C (second compound 10 µM, first compound 0.0949 µM) was 15.9% and the viability, T/C (second compound 10 µM, first compound 0.3 µM) was 12.6%.

`O=C(C=Cn1cnc(-c2cc(C(F)(F)F)cc(C(F)(F)F)c2)n1)NNc1cnccn1` + NC1CCC(NC2CC2c2ccccc2)CC1 was tested, and the IC50 (second compound 0.1 µM) was 5.44 nM, the IC50 (second compound 0.316 µM) was 4.93 nM and the IC50 (second compound 1 µM) was 6.56 nM. The IC50 (second compound 3.16 µM) was 6.04 nM, the IC50 (second compound 10 µM) was under 3.16 nM and the viability, T/C (second compound 0.1 µM, first compound 0.00316 µM) was 61.7%. For the same compound, the viability, T/C (second compound 0.1 µM, first compound 0.01 µM) was 37%, the viability, T/C [1] was 14.9% and the viability, T/C [2] was 10.4%. The viability, T/C [3] was 9%, the viability, T/C [4] was 6.32% and the viability, T/C (second compound 0.316 µM, first compound 0.00316 µM) was 58.9%. For the same compound, the viability, T/C (second compound 0.316 µM, first compound 0.01 µM) was 36.2%, the viability, T/C [5] was 15% and the viability, T/C [6] was 11.4%. The viability, T/C [7] was 7.56%, the viability, T/C [8] was 5.07% and the viability, T/C (second compound 1 µM, first compound 0.00316 µM) was 64.6%. For the same compound, the viability, T/C (second compound 1 µM, first compound 0.01 µM) was 41.7%, the viability, T/C [9] was 15.4% and the viability, T/C [10] was 11.4%. The viability, T/C [11] was 8.75%, the viability, T/C [12] was 6.54% and the viability, T/C (second compound 3.16 µM, first compound 0.00316 µM) was 56%. For the same compound, the viability, T/C (second compound 3.16 µM, first compound 0.01 µM) was 45.4%, the viability, T/C [13] was 13.9% and the viability, T/C [14] was 11.2%. It also gave a viability, T/C [15] of 8.03%, a viability, T/C [16] of 6.06% and a viability, T/C (second compound 10 µM, first compound 0.00316 µM) of 49.2%. The viability, T/C (second compound 10 µM, first compound 0.01 µM) was 34.5%, the viability, T/C [17] was 14% and the viability, T/C [18] was 9.12%. The viability, T/C [19] was 7.43% and the viability, T/C [20] was 5.83%.
